Drawing on the SangsterLogP compilation, this text covers logP for 30 compounds.

SMILES strings stand for the structures.

A short description of one series: method code SF-AS, from PMID: 582926.
In the case of `C[C@@H]1O[C@@H](O[C@@H]2C=C3CC[C@@H]4[C@H](CC[C@]5(C)[C@@H](c6ccc(=O)oc6)CC[C@]45O)[C@@]3(C)CC2)[C@H](O)[C@H](O)[C@H]1O`, the log partition coefficient (logP) – broadly, a log measure of how a compound divides between an organic and an aqueous phase – was determined as 2.48.

The nature of another series: method code SF-RC, from PMID: 582926.
As to `CO[C@H]1C[C@H](O[C@H]2CC[C@@]3(C)[C@H](CC[C@@H]4[C@@H]3CC[C@]3(C)[C@@H](C5=CC(=O)OC5)CC[C@]43O)C2)O[C@@H](C)[C@@H]1O`, the lipophilicity (logP) is 2.37.
`CC(=O)O[C@H]1C[C@H](O[C@H]2[C@@H](O)C[C@H](O[C@H]3[C@@H](O)C[C@H](O[C@H]4CC[C@@]5(C)[C@@H](CC[C@@H]6[C@H]5CC[C@]5(C)[C@@H](C7=CC(=O)OC7)CC[C@]65O)C4)O[C@@H]3C)O[C@@H]2C)O[C@H](C)[C@H]1O[C@@H]1O[C@H](CO)[C@@H](O)[C@H](O)[C@H]1O`: the lipophilicity (logP) came out at 1.23.
For the compound `CC1OC(OC2CCC3(C)C(CCC4C3CCC3(C)C(C5=CC(=O)OC5)C(O)CC43O)C2)CC(O)C1O` (stereo not given), the logP worked out at 1.76.
`C[C@]12CC[C@H](O)C[C@H]1CC[C@H]1C3=CC[C@H](C4=CC(=O)OC4)[C@@]3(C)CC[C@@H]12`: the logP turned out to be 2.52.
With `CC1OC(OC2CCC3(C)C(CCC4C3CC(O)C3(C)C(C5=CC(=O)OC5)CCC43O)C2)CC(O)C1OC1CC(O)C(OC2CC(O)C(OC3OC(C(=O)O)C(O)C(O)C3O)C(C)O2)C(C)O1` (stereo not given), the lipophilicity (logP) was -1.77.
In turn, `CC1O[C@H](O[C@H]2CC[C@]3(CO)C4CC[C@]5(C)[C@@H](C6=CC(=O)OC6)CC[C@]5(O)C4CC[C@]3(O)C2)C(O)C(O)[C@@H]1O` (stereo not given in full) registered a lipophilicity (logP) of -0.62.
With `CC(=O)OC1CC(OC2C(O)CC(OC3C(O)CC(OC4CCC5(C)C(CCC6C5CC(O)C5(C)C(C7=CC(=O)OC7)CCC65O)C4)OC3C)OC2C)OC(C)C1O` (stereo not given), the logP stood at 1.97.
Turning to `CC(=O)OC1CC2(O)C3CCC4CC(O)CCC4(C)C3CCC2(C)C1C1=CC(=O)OC1` (stereo not given), the lipophilicity (logP) was 1.93.
Turning to `CO[C@H]1CC(O[C@H]2CC[C@@]3(C)[C@H](CC[C@@H]4[C@@H]3CC[C@]3(C)[C@@H](C5=CC(=O)OC5)[C@@H](OC(C)=O)C[C@]43O)C2)O[C@@H](C)[C@@H]1OC(C)=O` (stereo not given in full), the logP is 2.95.
Compound `CO[C@H]1[C@@H](O)C[C@H](O[C@H]2[C@@H](O)C[C@H](O[C@H]3[C@@H](O)C[C@H](O[C@H]4CC[C@@]5(C)[C@H](CC[C@@H]6[C@@H]5C[C@@H](O)[C@]5(C)[C@@H](C7=CC(=O)OC7)CC[C@]65O)C4)O[C@@H]3C)O[C@@H]2C)O[C@@H]1C` came in with a logP of 1.73.
Same read-out and setting: under `C[C@H]1O[C@@H](O[C@H]2[C@@H](O)C[C@H](O[C@H]3CC[C@@]4(C)[C@@H](CC[C@@H]5[C@@H]4CC[C@]4(C)[C@@H](C6=CC(=O)OC6)CC[C@]54O)C3)O[C@@H]2C)C[C@H](O)[C@@H]1O` stands 2.15.
With `C[C@H]1O[C@@H](O[C@H]2CC[C@@]3(C)[C@H](CC[C@@H]4[C@@H]3CC[C@]3(C)[C@@H](C5=CC(=O)OC5)CC[C@]43O)C2)C[C@H](O)[C@@H]1O[C@H]1C[C@H](O)[C@H](O[C@H]2C[C@H](O)[C@H](O[C@@H]3O[C@H](C(=O)O)[C@@H](O)[C@H](O)[C@H]3O)[C@@H](C)O2)[C@@H](C)O1`, the logP was -1.1.
In turn, `CC(=O)OC1C[C@@H](OC2C(O)C[C@@H](OC3C(O)C[C@@H](OC4CC[C@@]5(C)[C@H](CC[C@H]6[C@H]5CC(O)[C@]5(C)C(C7=CC(=O)OC7)CC[C@]65O)C4)OC3C)OC2C)OC(C)C1O[C@H]1OC(CO)C(O)C(O)C1O` (stereo not given in full) came in with a log partition coefficient (logP) of 0.07.
Regarding `CC1OC(OC2CCC3(C)C(CCC4C3CCC3(C)C(C5=CC(=O)OC5)CCC43O)C2)CC(O)C1O` (stereo not given), the lipophilicity (logP) is 2.48.
As to `CO[C@H]1CC(O[C@H]2CC[C@@]3(C)[C@H](CC[C@@H]4[C@@H]3CC[C@]3(C)[C@@H](C5=CC(=O)OC5)[C@@H](OC(C)=O)C[C@]43O)C2)O[C@H](C)C1=O` (stereo not given in full), the logP worked out at 1.65.

A further series can be described thus: method code SF-CR, from PMID: 582926.
Compound `CC(=O)OC1CC(OC2CCC3(C)C(CCC4C3CC(O)C3(C)C(C5=CC(=O)OC5)CCC43O)C2)OC(C)C1OC1CC(O)C(OC2CC(O)C(O)C(C)O2)C(C)O1` (stereo not given) came in with a logP of 1.71.
Consider `CO[C@H]1C[C@H](O[C@H]2CCC3(CO)C4CCC5(C)[C@@H](C6=CC(=O)OC6)CCC5(O)C4CCC3(O)C2)O[C@H](C)[C@H]1O` (stereo not given in full), for which the logP came out at 0.56.
`C[C@H]1O[C@@H](O[C@H]2[C@@H](O)C[C@H](O[C@H]3[C@@H](O)C[C@H](O[C@H]4CC[C@@]5(C)[C@H](CC[C@@H]6[C@@H]5CC[C@]5(C)[C@@H](C7=CC(=O)OC7)[C@@H](O)C[C@]65O)C4)O[C@@H]3C)O[C@@H]2C)C[C@H](O)[C@@H]1O` showed a log partition coefficient (logP) of 1.66.
`CC(=O)O[C@H]1C[C@H](O[C@H]2CC[C@@]3(C)[C@H](CC[C@@H]4[C@@H]3C[C@@H](O)[C@]3(C)[C@@H](C5=CC(=O)OC5)CC[C@]43O)C2)O[C@H](C)[C@H]1O[C@H]1C[C@H](OC(C)=O)[C@H](O[C@H]2C[C@H](O)[C@H](O)[C@@H](C)O2)[C@@H](C)O1` registered a lipophilicity (logP) of 2.45.
Turning to `CC12CCC(OC3OC(CO)C(O)C(O)C3O)CC1CCC1C2CCC2(C)C(C3=CC(=O)OC3)CCC12O` (stereo not given), the logP was -0.64.
As for `CC(=O)O[C@H]1C[C@]2(O)[C@@H]3CC[C@@H]4C[C@@H](O[C@H]5C[C@H](O)[C@H](O[C@H]6C[C@H](O)[C@H](O[C@H]7C[C@H](O)[C@H](O)[C@@H](C)O7)[C@@H](C)O6)[C@@H](C)O5)CC[C@]4(C)[C@H]3CC[C@]2(C)[C@H]1C1=CC(=O)OC1`, the lipophilicity (logP) is 2.15.
For `C[C@H]1O[C@@H](O[C@H]2CC[C@]3(C=O)[C@H]4CC[C@]5(C)[C@@H](C6=CC(=O)OC6)CC[C@]5(O)[C@@H]4CC[C@]3(O)C2)C[C@H](O)[C@@H]1O`, the logP turned out to be 0.3.
Consider `C[C@@H]1O[C@@H](O[C@H]2CC[C@]3(C=O)[C@H]4CC[C@]5(C)[C@@H](C6=CC(=O)OC6)CC[C@]5(O)[C@@H]4CC[C@]3(O)C2)[C@H](O)[C@H](O)[C@H]1O`, for which the log partition coefficient (logP) is -0.48.
For `CC(=O)O[C@H]1[C@@H](OC(C)=O)C[C@H](O[C@H]2[C@@H](OC(C)=O)C[C@H](O[C@H]3[C@@H](OC(C)=O)C[C@H](O[C@H]4CC[C@@]5(C)[C@H](CC[C@@H]6[C@@H]5CC[C@]5(C)[C@@H](C7=CC(=O)OC7)[C@@H](OC(C)=O)C[C@]65O)C4)O[C@@H]3C)O[C@@H]2C)O[C@@H]1C`, the lipophilicity (logP) was determined as 2.85.
For `CO[C@H]1[C@H](O)[C@H](O[C@H]2CC[C@@]3(C=O)[C@H](CC[C@@H]4[C@@H]3CC[C@]3(C)[C@@H](C5=CC(=O)OC5)CC[C@]43O)C2)O[C@@H](C)[C@@H]1O`, the logP stood at 1.05.
The compound `COC1CC(OC2CC[C@@]3(C)[C@H](CC[C@@H]4[C@H]3CC[C@]3(C)C(C5=CC(=O)OC5)C(OC(C)=O)C[C@]43O)C2)OC(C)C1O` (stereo not given in full) showed a logP of 2.26.
Turning to `CO[C@H]1[C@H](O)[C@H](O[C@H]2CC[C@@]3(C)[C@H](CC[C@@H]4[C@@H]3CC[C@]3(C)[C@@H](C5=CC(=O)OC5)CC[C@]43O)C2)O[C@@H](C)[C@@H]1O`, the lipophilicity (logP) amounted to 2.1.
The compound `C[C@@H]1O[C@@H](O[C@H]2CC[C@@]3(C)[C@H](CC[C@@H]4[C@@H]3CC[C@]3(C)[C@@H](C5=CC(=O)OC5)CC[C@]43O)C2)[C@H](O)[C@H](O)[C@H]1O` showed a lipophilicity (logP) of 2.1.
Regarding `CC1OC(OC2CCC3(CO)C4CCC5(C)C6(C=CC(=O)OC6)CCC5(O)C4CCC3(O)C2)CC(O)C1O` (stereo not given), the logP turned out to be 0.15.
